Patent publication US20170050957A1, “4-AMINO-6-(HETEROCYCLIC)PICOLINATES AND 6-AMINO-2-(HETEROCYCLIC)PYRIMIDINE-4-CARBOXYLATES AND THEIR USE AS HERBICIDES” (Dow AgroSciences LLC, priority 2013, published 2017)
Where two headings read alike, the source gives them in different places. Values belong to the molecule of their own block, whether it stands above or below them.

Legend:
[1] = system: Key Grass and Sedge Weeds as well as Grass Crops; assay: Post-emergent Test II herbicidal activity (Table 16); assay type: in vivo; conditions: post-emergence, 336 h, 14 days after application; for pest or weed control at 35 g/ha: 35 g ai/ha; for pest or weed control at 70 g/ha: 70 g ai/ha; for pest or weed control at 140 g/ha: 140 g ai/ha
In short: (§1)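 Herbicidal effect scored as percent visual injury, 14 d after post-emergent application. Spray solutions contained acetone, DMSO, isopropyl alcohol, crop oil concentrate and surfactant, applied at 187 L/ha to young plants (1-2 true leaves).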

[2] = system: Key Broadleaf Weed and Crop Species; assay: Post-emergent Test II herbicidal activity (Table 15); assay type: in vivo; conditions: post-emergence, 336 h, 14 d; for pest or weed control at 35 g/ha: 35 g ai/ha; for pest or weed control at 70 g/ha: 70 g ai/ha; for pest or weed control at 140 g/ha: 140 g ai/ha
In short: as §1

[3] = Cyperus esculentus, yellow nutsedge (Cyperus esculentus), read-out: Visual Growth Reduction (%) 14 Days After Application CYPES
[4] = Echinochloa crus-galli, barnyardgrass (Echinochloa crus-galli), read-out: Visual Growth Reduction (%) 14 Days After Application ECHCG
[5] = Oryza sativa, rice (Oryza sativa), read-out: Visual Growth Reduction (%) 14 Days After Application ORYSA
[6] = Setaria faberi, giant foxtail (Setaria faberi), read-out: Visual Growth Reduction (%) 14 Days After Application SETFA
[7] = Triticum aestivum, wheat, spring (Triticum aestivum), read-out: Visual Growth Reduction (%) 14 Days After Application TRZAS
[8] = Zea mays, maize, corn (Zea mays), read-out: Visual Growth Reduction (%) 14 Days After Application ZEAMX
[9] = Abutilon theophrasti, velvetleaf (Abutilon theophrasti), read-out: Visual Growth Reduction (%) 14 Days After Application, ABUTH
[10] = Amaranthus retroflexus, redroot pigweed (Amaranthus retroflexus), read-out: Visual Growth Reduction (%) 14 Days After Application, AMARE
[11] = Brassica napus, oilseed rape, canola (Brassica napus), read-out: Visual Growth Reduction (%) 14 Days After Application, BRSNN
[12] = Chenopodium album, lambsquarters (Chenopodium album), read-out: Visual Growth Reduction (%) 14 Days After Application, CHEAL
[13] = Euphorbia heterophylla, wild poinsettia (Euphorbia heterophylla), read-out: Visual Growth Reduction (%) 14 Days After Application, EPHHL
[14] = Helianthus annuus, sunflower (Helianthus annuus), read-out: Visual Growth Reduction (%) 14 Days After Application, HELAN

melting point: 216 °C
SMILES: COC(=O)c1nc(-c2ccc3scnc3c2)c(F)c(N)c1Cl [Compound 6.01, Methyl 4-amino-6-(benzo[d]thiazol-5-yl)-3-chloro-5-fluoropicolinate]
pest or weed control at 35 g/ha [1, 3]: 45 to 59%
pest or weed control at 70 g/ha [1, 3]: 45 to 59%
pest or weed control at 140 g/ha [1, 3]: 45 to 59%
pest or weed control at 35 g/ha [1, 4]: 0 to 29%
pest or weed control at 70 g/ha [1, 4]: 45 to 59%
pest or weed control at 140 g/ha [1, 4]: 60 to 74%
pest or weed control at 35 g/ha [1, 5]: 0 to 29%
pest or weed control at 70 g/ha [1, 5]: 0 to 29%
pest or weed control at 140 g/ha [1, 5]: 0 to 29%
pest or weed control at 35 g/ha [1, 6]: 0 to 29%
pest or weed control at 70 g/ha [1, 6]: 0 to 29%
pest or weed control at 140 g/ha [1, 6]: 0 to 29%
pest or weed control at 35 g/ha [1, 7]: 0 to 29%
pest or weed control at 70 g/ha [1, 7]: 0 to 29%
pest or weed control at 140 g/ha [1, 7]: 0 to 29%
pest or weed control at 35 g/ha [1, 8]: 0 to 29%
pest or weed control at 70 g/ha [1, 8]: 0 to 29%
pest or weed control at 140 g/ha [1, 8]: 0 to 29%
pest or weed control at 35 g/ha [2, 9]: 85 to 94%
pest or weed control at 70 g/ha [2, 9]: 85 to 94%
pest or weed control at 140 g/ha [2, 9]: 85 to 94%
pest or weed control at 35 g/ha [2, 10]: 85 to 94%
pest or weed control at 70 g/ha [2, 10]: 95 to 100%
pest or weed control at 140 g/ha [2, 10]: 95 to 100%
pest or weed control at 35 g/ha [2, 11]: 95 to 100%
pest or weed control at 70 g/ha [2, 11]: 95 to 100%
pest or weed control at 140 g/ha [2, 11]: 95 to 100%
pest or weed control at 35 g/ha [2, 12]: 95 to 100%
pest or weed control at 70 g/ha [2, 12]: 95 to 100%
pest or weed control at 140 g/ha [2, 12]: 95 to 100%
pest or weed control at 35 g/ha [2, 13]: 0 to 29%
pest or weed control at 70 g/ha [2, 13]: 85 to 94%
pest or weed control at 140 g/ha [2, 13]: 95 to 100%
pest or weed control at 35 g/ha [2, 14]: 85 to 94%
pest or weed control at 70 g/ha [2, 14]: 85 to 94%
pest or weed control at 140 g/ha [2, 14]: 85 to 94%

melting point: 176 to 177 °C
SMILES: Nc1cc(-c2ccc3ccsc3c2)nc(C(=O)O)c1Cl [Compound 3.16]
pest or weed control at 35 g/ha [1, 3]: 0 to 29%
pest or weed control at 70 g/ha [1, 3]: 0 to 29%
pest or weed control at 140 g/ha [1, 3]: 45 to 59%
pest or weed control at 35 g/ha [1, 4]: 75 to 84%
pest or weed control at 70 g/ha [1, 4]: 75 to 84%
pest or weed control at 140 g/ha [1, 4]: 75 to 84%
pest or weed control at 35 g/ha [1, 5]: 0 to 29%
pest or weed control at 70 g/ha [1, 5]: 0 to 29%
pest or weed control at 140 g/ha [1, 5]: 0 to 29%
pest or weed control at 35 g/ha [1, 6]: 0 to 29%
pest or weed control at 70 g/ha [1, 6]: 0 to 29%
pest or weed control at 140 g/ha [1, 6]: 0 to 29%
pest or weed control at 35 g/ha [1, 7]: 0 to 29%
pest or weed control at 70 g/ha [1, 7]: 0 to 29%
pest or weed control at 140 g/ha [1, 7]: 0 to 29%
pest or weed control at 35 g/ha [1, 8]: 60 to 74%
pest or weed control at 70 g/ha [1, 8]: 60 to 74%
pest or weed control at 140 g/ha [1, 8]: 75 to 84%
pest or weed control at 35 g/ha [2, 9]: 60 to 74%
pest or weed control at 70 g/ha [2, 9]: 60 to 74%
pest or weed control at 140 g/ha [2, 9]: 75 to 84%
pest or weed control at 35 g/ha [2, 10]: 85 to 94%
pest or weed control at 70 g/ha [2, 10]: 95 to 100%
pest or weed control at 140 g/ha [2, 10]: 85 to 94%
pest or weed control at 35 g/ha [2, 11]: 0 to 29%
pest or weed control at 70 g/ha [2, 11]: 0 to 29%
pest or weed control at 140 g/ha [2, 11]: 45 to 59%
pest or weed control at 35 g/ha [2, 12]: 85 to 94%
pest or weed control at 70 g/ha [2, 12]: 85 to 94%
pest or weed control at 140 g/ha [2, 12]: 85 to 94%
pest or weed control at 35 g/ha [2, 13]: 60 to 74%
pest or weed control at 70 g/ha [2, 13]: 60 to 74%
pest or weed control at 140 g/ha [2, 13]: 60 to 74%
pest or weed control at 35 g/ha [2, 14]: 0 to 29%
pest or weed control at 70 g/ha [2, 14]: 0 to 29%
pest or weed control at 140 g/ha [2, 14]: 0 to 29%
